Measured values as given in patent US10975070B2, “Ghrelin receptor agonist for treatment of cachexia” (RaQualia Pharma Inc., priority 2010, dated 2021).

Legend:
[1] = tested on: tumor-bearing mice prepared using a murine colon cancer cell line, CT26; experiment: Inhibitory effect on weight loss of tumor-bearing mice (CT26 colon cancer transplant); assay type: in vivo, BALB/c mice
Text: Inhibitory Effect on Weight Loss of Tumor-Bearing Mice
Tumor-bearing mice prepared using a murine colon cancer cell line, colon 26, are known to closely reproduce the symptoms of cancer cachexia (Cancer Research, 50, 4528-4532 (1990)). In this experiment, using tumor-bearing mice prepared using a murine colon cancer cell line, CT26, that was established in the same method as that for producing the murine colon cancer cell line, colon 26, (The Journal of Immunology, 154, 4685-4692 (1995)), Compound A of the present invention was evaluated for effects on the body weights of said mice. That is, CT26 colon cancer cells (5×10^6) were subcutaneously transplanted in the flank of BALB/c mice at 7 weeks of age. The transplanted mice were divided into two groups, and once every day from the following day of the transplantation, water for injection was orally administered to the control group, whereas Compound A was orally administered at a dose of 75 mg/kg to the compound administration group. The administered volume was […]. Five and ten days after the transplantation, the tumor size (major axis and minor axis) in each mouse was measured, and the tumor volume was calculated from the following formula: (major axis)×(minor axis)^2/2. In addition, the body weight of each mouse was measured daily after the transplantation. The tumor volume 5 and 10 days after the transplantation of the CT26 murine colon cancer cells, and the body weight 10 days after the transplantation are shown in Table 1. Data are expressed as the mean±standard error.

[2] = tested on: rats with transplanted cancer tissue (sarcoma cells induced by methylcholanthrene); experiment: Inhibitory effect on weight loss of rats with transplanted cancer (methylcholanthrene-induced sarcoma); assay type: in vivo; details: once a day for 5 to 14 days from 6-7 days after transplantation, dose-dependent, result in words
Text: Inhibitory Effect on Weight Loss of Rats with Transplanted Cancer
The effect of Compound A was examined using this model. Sarcoma cells induced by methylcholanthrene were subcutaneously injected into the abdomen of rats. The rats were reared in a normal environment for about eight days and in this way animals used to provide cancer were produced. An amount of 0.2 to 0.3 g of fresh cancer tissue obtained from the animals used to provide cancer was subcutaneously transplanted into the abdomen of rats under anesthesia. From 6 days to 7 days after the transplantation of the cancer, Compound A was administered once a day for 5 days to 14 days, and the body weight was daily measured.
An experiment was conducted on Compound B in the same manner as described above.

[3] = CT26 tumor-bearing BALB/c mice, 75 mg/kg orally once daily from the day after transplantation, mean ± standard error

Structure (SMILES)	Body weight 10 days after transplantation [1, 3] [g]	Tumor volume 5 days after transplantation [1, 3] [mm^3]	Tumor volume 10 days after transplantation ([1]; CT26 tumor-bearing BALB/c mice, 75 mg/kg orally once daily from the day after transplantation, mean ± standard error, 75 mg/kg) [mm^3]	Effect on body weight 10 days after transplantation in comparison with the control group ([1]; CT26 tumor-bearing mice, 75 mg/kg orally, critical ratio of 0.1% or lower, result in words)	Effect on tumor volume in comparison with the control group ([1]; CT26 tumor-bearing mice, 75 mg/kg orally, result in words)	Progression of the weight loss in tumor-bearing animals [2]
CN1N=C2CCN(C(=O)[C@@H](COCc3ccccc3)NC(=O)C(C)(C)N)C[C@@]2(Cc2ccccc2)C1=O [Compound A, 2-amino-N-[2-(3a-(R)-benzyl-2-methyl-3-oxo-2,3,3a,4,6,7-hexahydro-pyrazolo[4,3-c]pyridin-5-yl)-1-(R)-benzyloxymethyl-2-oxo-ethyl]-isobutyramide]	22.3 ± 0.2	137 ± 8	291±25	significantly increased the body weight	not capable of reducing the tumor volume	significantly inhibited the progression of the weight loss
CC(C)(N)C(=O)N[C@H](COCc1ccc(F)cc1F)C(=O)N1CCC2=NN(CC(F)(F)F)C(=O)[C@]2(Cc2ccccn2)C1 [Compound B, 2-amino-N-[1-(R)-(2,4-difluoro-benzyloxymethyl)-2-oxo-2-(3-oxo-3a-(R)-pyridin-2-ylmethyl-2-(2,2,2-trifluoro-ethyl)-2,3,3a,4,6,7-hexahydro-pyrazolo[4,3-c]pyridin-5-yl)-ethyl]-2-methyl-propionamide]	–	–	–	–	–	significantly inhibited the progression of the weight loss
